From US20210401833A1 (IMBRIA PHARMACEUTICALS, INC., priority 2020, published 2021)
Converted amounts (≈) assume the structure as drawn. Read-outs that look alike come from different tables or passages of the source.

Experiments:
[1] = 28-day dog study (nonclinical toxicology, NOAEL); assay type: in vivo; settings: for AUC(0-t): po, 200 mg/kg/day
Protocol: Based on the nonclinical toxicology data, it was considered that subjects in this clinical study were not at unreasonable risk of adverse effects. […] For a 60-kg individual, the NOAEL dose would be 6480 mg. With a 10-fold safety factor applied, this would allow for a maximum recommended starting dose (MRSD) of 648 mg/day. 7,8 The planned starting dose in the current Phase 1 study was 50 mg, equivalent to 0.83 mg/kg/day for a 60-kg subject. This starting dose is less than 10% of the MRSD determined from the dog NOAEL and less than 1% of the dog NOAEL
The relevant animal study was the 28-day dog study where the NOAEL for IMB-1018972 was 200 mg/kg/day.

clinical = settings: human, in vivo; for AUC0-t higher after the 8-hour MR formulation than after the 4-hour MR formulation / AUC0-t lower after the 8-hour MR formulation than after the 4-hour MR formulation / Tmax: po
Excerpt: The blood samples were taken via an indwelling intravenous catheter or by direct venipuncture.
The effect of food on the relative oral bioavailability of IMB-1018972 following a single oral administration was explored. This occurred in the single-dose MR part where subjects received the same dose, first under fasted conditions and then under fed conditions.

[2] = aqueous solubility of CV-8972; assay type: physicochemical; settings: aqueous solution, aqueous buffer
Excerpt: FIG. 2 is graph of the aqueous solubility of CV-8972 as a function of pH generated via dynamic methods due to instability.

[3] = Phase 1 first-in-human study, single-dose MR part, safety and tolerability; assay type: in vivo
Protocol: The subjects received a single oral dose of 1 of 4 MR formulations of IMB-1018972 under fasted conditions (an overnight fast of at least 10 hours) on Days 1, 4, 7, and 10 in a fixed order that was the same for all subjects. The MR formulation of IMB-1018972 to be administered on Day 13 under fed conditions was 1 of the 4 MR formulations administered on Days 1, 4, 7, and 10 under fasted conditions.
(§1) AEs were recorded from (first) admission until completion of the follow-up visit. Any clinically significant observations in results of clinical laboratory, 12-lead ECGs, vital signs, or physical examinations were recorded as AEs.
(§2) A treatment-emergent AE (TEAE) was defined as any event not present prior to (the first) administration of the study drug or any event already present that worsened in either severity or frequency following exposure to the study drug.
(§3) The severity of the AEs was rated as mild, moderate, or severe; the relationship between the AEs and the study drug was indicated as none, unlikely, possibly, likely, or definitely. Adverse events assessed as possibly, likely, or definitely were considered related to the study drug; AEs assessed as none or unlikely were considered not related to the study drug.

[4] = Phase 1 first-in-human study, combined single and multiple IMB-1018972 dose results (SAD, MAD, FE, MR), plasma and urine PK; settings: plasma of subjects that received IMB-1018972
Excerpt: (§4) Data on the performance of the method and stability indicate that the sample results as reported are reliable.

[5] = in vitro stability in biological media across species; assay type: in vitro ADME
Excerpt: Additional and extensive in vitro stability work has been carried out across species to evaluate the impact of GI tract, liver tissues, and plasma on half-life as measured by in vitro clearance of CV-8972 in various biological media.

[6] = Phase 1 first-in-human study, overall safety; assay type: in vivo; settings: after administration as the MR formulations
Protocol: Safety and tolerability were assessed through AEs, clinical laboratory, vital signs, ECGs, continuous cardiac monitoring (telemetry), and physical examination findings, and any other parameter that was relevant for safety assessment.

[7] = solution stability (decomposition kinetics) in simulated GI media at 37° C. and 0.2 mg/mL, HPLC; assay type: physicochemical
Protocol: The solution stability of CV-8972 was evaluated in multiple media currently used to simulate dissolution and stability conditions in the various sections of the GI tract. As CV-8972 will be subject to hydrolysis as it is dissolving in the GI tract, it will be important to understand these kinetics in terms of designing instant and controlled-release formulations. HPLC methods were used to perform these assessments.
In summary, there may be some protective effect of the components of the FaSSGF, FaSSIF, and FeSSIF, particularly when compared to stability in 0.1N HCl or bicarbonate or phosphate buffer at pH 6-8. On the positive side, the fastest decomposition rate still has a T1/2 of 1.5 hours which should provide enough residence time for release and absorption in the upper GI tract.

[8] = in vitro CaCo2 permeability; assay type: in vitro ADME; settings: human, Caco-2
CaCo2 = experiment: in vitro CaCo2 permeability; assay type: in vitro ADME
[9] = pH stability profile of a 1 mg/mL solution of CV-8972 at 23° C.; assay type: physicochemical; settings: for 1st order Kobs / % lost in 25 hrs / Amt. remaining / T5% / T10%: 1 mg/mL, 23° C.
Protocol: The pH stability profile is summarized and shown in Table 2 for a 1 mg/mL solution of CV-8972 at 23° C.
The hydrolysis proceeds via the first step shown in FIG. 1, as Nicotinic acid and CV-8814 are the only decomposition products generated. The optimal pH for solution stability appears to be around pH 5-5.1 for a 1 mg/mL solution with acid-catalyzed hydrolysis increasing at pH values less than 5.0 and base-catalyzed hydrolysis increasing above pH 5.0.

[10] = Phase 1 first-in-human study, multiple-dose MR part, safety and tolerability; assay type: in vivo
Protocol: as §1, §2, §3

[11] = human, in vivo, 150 mg
Excerpt: as §4

Question: With COc1ccc(CN2CCNCC2)c(OC)c1OC [trimetazidine, reference compound] as the compound, how does the AUC(0-t) ([1]; female, dog, in vivo) read?
Answer: 13.8 µg·h/mL

Question: And the AUC(0-t) ([1]; male, dog, in vivo)?
Answer: 15 µg·h/mL

Question: What about the half-life (clinical) of the same compound?
Answer: 8.11 to 9.35 h

Question: And the “AUC0-t higher after the 8-hour MR formulation than after the 4-hour MR formulation” value (clinical)?
Answer: 4%

Question: What about the “AUC0-t lower after the 8-hour MR formulation than after the 4-hour MR formulation” value (clinical) of the same compound?
Answer: 12%

Question: And the Tmax (clinical; 50 mg)?
Answer: 8 h

Question: And the Tmax (clinical; 200 mg)?
Answer: 5 h

Question: What does the source list for COc1ccc(CN2CCN(CCOC(=O)c3cccnc3)CC2)c(OC)c1OC [CV-8972, 2-[4-[(2,3,4-trimethoxyphenyl)methyl]piperazin-1-yl]ethyl pyridine-3-carboxylate]?
Answer: solubility ([2]; free base, read-out: saturated base solubility / minimal solubility as the free base): 5000 to 10000 µg/mL (≈ 12 to 24.1 mM); solubility ([2]; salt, read-out: solubility as the salt): > 100000 µg/mL; TEAEs of flushing [3]: No TEAEs of flushing were reported; difference between fasted and fed administration for the number and incidence of TEAEs [3]: no clear difference; dose or dissolution time dependency of the number and incidence of TEAEs [3]: no apparent dose or dissolution time dependency; number of TEAEs considered not related to the study drug [3]: 30; number of TEAEs considered related to the study drug [3]: 7; number of TEAEs, SOC Gastrointestinal disorders [3]: 5; number of TEAEs, SOC General disorders and administration site conditions [3]: 11; number of TEAEs, SOC Nervous system disorders [3]: 8; number of drug-related TEAEs of ALT increased [3]: 1; number of drug-related TEAEs of headache [3]: 1; number of drug-related TEAEs of pollakiuria [3]: 5; severe TEAEs [3]: No severe TEAEs were reported; subjects n (%) with drug-related pollakiuria [3]: 2 (16.7%); subjects n (%), SOC Gastrointestinal disorders [3]: 4 (33.3%); subjects n (%), SOC General disorders and administration site conditions [3]: 7 (58.3%); subjects n (%), SOC Nervous system disorders [3]: 7 (58.3%); total number of TEAEs ([3]; all treatments): 37; IMB-1018972 in plasma samples [4]: could be measured in only few plasma samples; stability in GI tract, liver tissues and plasma (in vitro clearance) [5]: relatively unstable in the GI tract; hemodynamic changes and changes in the QTc-interval [6]: no findings of hemodynamic changes, nor changes in the QTc-interval; Est Kobs (first order rate constant for hydrolysis) ([7]; 0.1 M HCl, pH 1.0, no surfactants): 0.221 h⁻¹; Est Kobs (first order rate constant for hydrolysis) ([7]; BiCarb adj (0.1 M HCl neutralized with sodium bicarbonate), pH 6-8.2, no surfactants): 0.456 h⁻¹; Est Kobs (first order rate constant for hydrolysis) ([7]; FaSSGF, pH 1.6): 0.0143 h⁻¹; Est Kobs (first order rate constant for hydrolysis) ([7]; FaSSIF, pH 6.5): 0.05124 h⁻¹; Est Kobs (first order rate constant for hydrolysis) ([7]; FeSSIF, pH 5.8): 0.00696 h⁻¹; half-life at 0.2 mg/mL ([7]; bicarbonate-adjusted medium (BiCarb adj), BiCarb adj, pH 6-8.2 (fastest decomposition rate)): 1.5 h; Papp [8]: ~29 ×10⁻⁶ cm/s; efflux (CaCo2): little evidence of efflux; optimal pH for solution stability ([9]; 1 mg/mL solution): 5-5.1; 1st order Kobs ([9]; pH 2.74, Water): 0.00516 h⁻¹; % lost in 25 hrs ([9]; pH 2.74, Water): 12.1%; Amt. remaining ([9]; pH 2.74, Water): 0.879 mg/mL; T5% ([9]; pH 2.74, Water): 9.9 h; T10% ([9]; pH 2.74, Water): 20.4 h; 1st order Kobs ([9]; pH 3.52, 20 mM Phos): 0.00273 h⁻¹; % lost in 25 hrs ([9]; pH 3.52, 20 mM Phos): 6.6%; Amt. remaining ([9]; pH 3.52, 20 mM Phos): 0.934 mg/mL; T5% ([9]; pH 3.52, 20 mM Phos): 18.8 h; T10% ([9]; pH 3.52, 20 mM Phos): 38.6 h; 1st order Kobs ([9]; pH 5.05, 20 mM Am. Acetate): 0.00105 h⁻¹; % lost in 25 hrs ([9]; pH 5.05, 20 mM Am. Acetate): 2.6%; Amt. remaining ([9]; pH 5.05, 20 mM Am. Acetate): 0.974 mg/mL; T5% ([9]; pH 5.05, 20 mM Am. Acetate): 48.7 h; T10% ([9]; pH 5.05, 20 mM Am. Acetate): 100.0 h; 1st order Kobs ([9]; pH 5.64, 20 mM Phos): 0.00248 h⁻¹; % lost in 25 hrs ([9]; pH 5.64, 20 mM Phos): 6.0%; Amt. remaining ([9]; pH 5.64, 20 mM Phos): 0.94 mg/mL; T5% ([9]; pH 5.64, 20 mM Phos): 20.7 h; T10% ([9]; pH 5.64, 20 mM Phos): 42.6 h; 1st order Kobs ([9]; pH 6.5, 20 mM Phos): 0.01119 h⁻¹; % lost in 25 hrs ([9]; pH 6.5, 20 mM Phos): 24.4%; Amt. remaining ([9]; pH 6.5, 20 mM Phos): 0.756 mg/mL; T5% ([9]; pH 6.5, 20 mM Phos): 4.6 h; T10% ([9]; pH 6.5, 20 mM Phos): 9.4 h; 1st order Kobs ([9]; pH 6.88, 20 mM Phos): 0.02064 h⁻¹; % lost in 25 hrs ([9]; pH 6.88, 20 mM Phos): 40.3%; Amt. remaining ([9]; pH 6.88, 20 mM Phos): 0.597 mg/mL; T5% ([9]; pH 6.88, 20 mM Phos): 2.5 h; T10% ([9]; pH 6.88, 20 mM Phos): 5.1 h; NOAEL at 28 days ([1]; dog, in vivo): 108 mg/kg/day; maximum recommended starting dose (MRSD) ([1]; dog, in vivo, 28 days): 648 mg/day; NOAEL dose for a 60-kg individual ([1]; from HED): 6480 mg; NOAEL at 28 days ([1]; in vivo, 28-day dog, oral, read-out: no observed adverse effect level (NOAEL)): 200 mg/kg/day; number of TEAEs considered not related to the study drug [10]: 30; number of TEAEs considered related to the study drug [10]: 10; number of TEAEs, SOC Gastrointestinal disorders [10]: 9; number of TEAEs, SOC General disorders and administration site conditions [10]: 4; number of TEAEs, SOC Musculoskeletal and connective tissue disorders [10]: 4; number of TEAEs, SOC Nervous system disorders [10]: 9; number of TEAEs, SOC Renal and urinary disorders (pollakiuria) [10]: 4; number of drug-related TEAEs of pollakiuria [10]: 4; number of drug-related TEAEs, Nervous system disorders [10]: 2; severity of TEAEs [10]: All TEAEs were of mild severity; subjects n (%) with drug-related Nervous system disorders [10]: 2 (16.7%); subjects n (%) with drug-related pollakiuria [10]: 4 (33.3%); subjects n (%), SOC Gastrointestinal disorders [10]: 5 (41.7%); subjects n (%), SOC General disorders and administration site conditions [10]: 4 (33.3%); subjects n (%), SOC Musculoskeletal and connective tissue disorders [10]: 4 (33.3%); subjects n (%), SOC Nervous system disorders [10]: 7 (58.3%); subjects n (%), SOC Renal and urinary disorders (pollakiuria) [10]: 4 (33.3%); total number of TEAEs [10]: 40; subjects reporting flushing ([10]; mild severity): 2 (16.7%); number of TEAEs of flushing ([10]; mild severity, drug-related): 2

Question: Which AUC(0-t) ([1]; female, dog, in vivo) does the source give for COc1ccc(CN2CCN(CCO)CC2)c(OC)c1OC [CV-8814, 2-[4-[(2,3,4-trimethoxyphenyl)methyl]piperazin-1-yl]ethanol] here?
Answer: 653 µg·h/mL

Question: What about the AUC(0-t) ([1]; male, dog, in vivo) of the same compound?
Answer: 418 µg·h/mL

Question: And the half-life (clinical)?
Answer: 3.35 to 4.27 h

Question: What about the “Cmax higher under fed conditions relative to fasted conditions” value (clinical; 200 mg) of the same compound?
Answer: approximately 42%

Question: And the “AUC0-t higher after the 8-hour MR formulation than after the 4-hour MR formulation” value (clinical)?
Answer: 6%

Question: And the “AUC0-t lower after the 8-hour MR formulation than after the 4-hour MR formulation” value (clinical)?
Answer: 26%

Question: What about the Tmax (clinical; 200 mg) of the same compound?
Answer: 2 h

Question: And the “Cmax lower under fed conditions relative to fasted conditions” value [11]?
Answer: approximately 36%
